In ChEMBL document CHEMBL1151716 (J Med Chem, 2008):
In brackets after ≈: the same amount, converted by molar mass. Several values for one entry are separate records, joined by “and”; a condition that tells them apart may be missing. Equal entries are not always repeated.

How the values were obtained:
[1] = molecular target: cGMP-dependent 3',5'-cyclic phosphodiesterase (Homo sapiens, UniProt O00408); test: Inhibition of human cloned PDE2A3 expressed in Escherichia coli BL21 by liquid scintillation counting
Sequence of cGMP-dependent 3',5'-cyclic phosphodiesterase (O00408 whole entry): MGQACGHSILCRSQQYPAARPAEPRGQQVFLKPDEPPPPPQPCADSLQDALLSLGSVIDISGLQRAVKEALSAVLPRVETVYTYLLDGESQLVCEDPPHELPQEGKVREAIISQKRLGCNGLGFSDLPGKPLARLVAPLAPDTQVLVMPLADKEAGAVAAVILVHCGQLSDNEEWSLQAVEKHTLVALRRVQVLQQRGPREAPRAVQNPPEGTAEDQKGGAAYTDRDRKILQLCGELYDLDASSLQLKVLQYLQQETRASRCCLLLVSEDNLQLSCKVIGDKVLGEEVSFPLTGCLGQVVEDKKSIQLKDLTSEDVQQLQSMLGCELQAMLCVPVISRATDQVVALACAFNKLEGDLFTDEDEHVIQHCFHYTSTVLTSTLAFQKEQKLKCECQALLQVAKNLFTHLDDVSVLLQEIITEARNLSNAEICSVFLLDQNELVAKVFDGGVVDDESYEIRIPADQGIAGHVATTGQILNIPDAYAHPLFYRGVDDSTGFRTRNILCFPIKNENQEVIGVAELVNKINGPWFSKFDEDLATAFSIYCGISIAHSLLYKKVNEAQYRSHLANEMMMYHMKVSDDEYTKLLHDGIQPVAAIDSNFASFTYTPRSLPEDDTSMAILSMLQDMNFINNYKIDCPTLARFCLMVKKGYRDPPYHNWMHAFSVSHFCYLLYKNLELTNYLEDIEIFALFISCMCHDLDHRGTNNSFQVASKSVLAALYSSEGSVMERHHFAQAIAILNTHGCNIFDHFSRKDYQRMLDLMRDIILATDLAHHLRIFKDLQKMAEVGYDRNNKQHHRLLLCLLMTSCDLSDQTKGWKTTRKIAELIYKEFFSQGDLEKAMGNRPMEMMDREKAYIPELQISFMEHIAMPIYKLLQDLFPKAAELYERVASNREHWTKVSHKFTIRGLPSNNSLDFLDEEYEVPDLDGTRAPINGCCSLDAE

[2] = molecular target: 3',5'-cyclic-AMP phosphodiesterase 4D (Homo sapiens, UniProt Q08499)
Sequence of 3',5'-cyclic-AMP phosphodiesterase 4D (Q08499 whole entry): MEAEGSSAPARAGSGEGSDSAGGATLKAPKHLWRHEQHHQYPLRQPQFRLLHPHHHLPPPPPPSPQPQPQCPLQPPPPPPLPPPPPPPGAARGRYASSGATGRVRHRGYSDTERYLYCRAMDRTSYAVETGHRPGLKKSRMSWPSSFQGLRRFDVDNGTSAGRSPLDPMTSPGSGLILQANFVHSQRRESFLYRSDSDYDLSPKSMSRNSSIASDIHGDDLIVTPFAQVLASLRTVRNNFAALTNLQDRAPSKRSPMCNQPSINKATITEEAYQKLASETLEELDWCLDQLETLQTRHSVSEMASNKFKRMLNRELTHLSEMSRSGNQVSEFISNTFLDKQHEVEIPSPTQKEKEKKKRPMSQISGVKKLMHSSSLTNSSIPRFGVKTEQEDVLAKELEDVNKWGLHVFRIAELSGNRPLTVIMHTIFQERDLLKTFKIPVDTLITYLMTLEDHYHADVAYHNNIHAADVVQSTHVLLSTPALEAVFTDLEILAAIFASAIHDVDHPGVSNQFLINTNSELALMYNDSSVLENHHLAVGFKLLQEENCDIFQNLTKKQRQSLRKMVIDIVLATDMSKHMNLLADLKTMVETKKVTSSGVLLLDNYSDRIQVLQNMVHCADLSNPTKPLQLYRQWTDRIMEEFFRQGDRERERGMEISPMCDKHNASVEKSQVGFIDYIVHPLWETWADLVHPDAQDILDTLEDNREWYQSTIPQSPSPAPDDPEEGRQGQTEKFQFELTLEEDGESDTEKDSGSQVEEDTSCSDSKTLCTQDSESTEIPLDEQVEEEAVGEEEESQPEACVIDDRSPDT
Description: Inhibition of full length human PDE4D2 expressed in Escherichia coli BL21 by liquid scintillation counting

[3] = molecular target: cGMP-specific 3',5'-cyclic phosphodiesterase (Homo sapiens, UniProt O76074); test: Inhibition of human cloned PDE5A1 expressed in Escherichia coli BL21 by liquid scintillation counting
[4] = molecular target: High affinity cGMP-specific 3',5'-cyclic phosphodiesterase 9A (Homo sapiens, UniProt O76083); test: Inhibition of human cloned PDE9A2 expressed in Escherichia coli BL21 by liquid scintillation counting
Sequence of High affinity cGMP-specific 3',5'-cyclic phosphodiesterase 9A (O76083 whole entry, the tested form may be a part): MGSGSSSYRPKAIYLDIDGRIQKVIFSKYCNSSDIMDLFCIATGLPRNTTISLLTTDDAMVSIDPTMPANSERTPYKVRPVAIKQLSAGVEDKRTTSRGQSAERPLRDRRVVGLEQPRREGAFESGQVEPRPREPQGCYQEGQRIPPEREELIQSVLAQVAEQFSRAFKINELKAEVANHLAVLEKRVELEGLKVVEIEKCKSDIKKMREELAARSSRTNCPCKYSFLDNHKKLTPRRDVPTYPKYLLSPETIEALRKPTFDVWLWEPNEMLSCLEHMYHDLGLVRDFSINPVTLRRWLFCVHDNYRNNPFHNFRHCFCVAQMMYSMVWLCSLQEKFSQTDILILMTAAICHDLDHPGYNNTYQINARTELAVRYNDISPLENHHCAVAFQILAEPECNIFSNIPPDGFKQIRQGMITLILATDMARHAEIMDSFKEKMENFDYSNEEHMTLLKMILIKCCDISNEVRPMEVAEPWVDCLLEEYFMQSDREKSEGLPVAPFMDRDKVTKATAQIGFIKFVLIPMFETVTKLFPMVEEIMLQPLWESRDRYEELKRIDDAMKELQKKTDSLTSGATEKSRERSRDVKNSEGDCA

[5] = molecular target: High affinity 3',5'-cyclic-AMP phosphodiesterase 7A (Homo sapiens, UniProt Q13946); test: Inhibition of human cloned PDE7A1 catalytic domain expressed in Escherichia coli BL21 by liquid scintillation counting
Sequence of High affinity 3',5'-cyclic-AMP phosphodiesterase 7A (Q13946 whole entry, the tested form may be a part): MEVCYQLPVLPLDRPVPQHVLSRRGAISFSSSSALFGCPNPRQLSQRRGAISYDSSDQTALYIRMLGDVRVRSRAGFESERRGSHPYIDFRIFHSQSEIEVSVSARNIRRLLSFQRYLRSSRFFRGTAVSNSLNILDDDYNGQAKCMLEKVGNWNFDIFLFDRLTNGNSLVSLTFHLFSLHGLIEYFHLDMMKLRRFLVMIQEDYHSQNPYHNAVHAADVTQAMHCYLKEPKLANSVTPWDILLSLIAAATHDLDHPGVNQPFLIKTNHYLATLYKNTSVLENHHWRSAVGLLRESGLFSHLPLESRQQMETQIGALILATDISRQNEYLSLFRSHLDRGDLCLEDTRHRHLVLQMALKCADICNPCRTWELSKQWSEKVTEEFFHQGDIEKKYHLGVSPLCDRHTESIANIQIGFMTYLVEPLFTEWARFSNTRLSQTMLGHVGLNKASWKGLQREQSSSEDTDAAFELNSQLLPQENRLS

[6] = system: PBMC; test: Inhibition of LPS-induced TNFalpha production in human PBMC; type: functional, cell-based
[7] = Solubility in heavy water; type: physicochemical

| SMILES | IC50 [2] | also measured |
| --- | --- | --- |
| CCCC(=O)c1ccc(OC)c(OC2CCOCC2)c1 | 3.5 µM | IC50 [1]: > 50 µM; IC50 [3]: > 50 µM; IC50 [4]: > 50 µM; IC50 [5]: > 50 µM |
| COc1cc(C(CC(C)=O)c2cnc3ccccc3c2)ccc1Oc1ccccn1 (stereo not drawn) | 6 µM | IC50 [1]: > 50 µM; IC50 [3]: > 50 µM; IC50 [4]: > 50 µM; IC50 [5]: > 50 µM |
| CCCC(O)(c1ccc(Oc2ccccn2)c(OC)c1)c1cnc2ccccc2c1 (stereo not drawn) | 6 µM | IC50 [1]: > 50 µM; IC50 [3]: 40 µM; IC50 [4]: > 50 µM; IC50 [5]: 17 µM |
| CC(C)(C)C(=O)c1ccc(OC(F)F)c(OC2CCOC2)c1 (stereo not drawn) | 0.41 µM |  |
| CCCC(O)c1ccc(OC2CCOC2)c(OC)c1 (stereo not drawn) | > 100 µM and 525 µM |  |
| CC(C)CC(=O)c1ccc(OC(F)F)c(OC2CCCC2)c1 | 0.028 µM | IC50 [6]: 100 nM |
| O=C(CCCc1ccccc1)c1ccc(OC(F)F)c(OC(F)F)c1 | 44 µM |  |
| COc1ccc(C(=O)Nc2ccccc2C(F)(F)F)cc1OC1CCCC1 | 3.09 µM |  |
| CCCC(=O)c1ccc(OC)c(OC2CCOC2)c1 (stereo not drawn) | 0.43 µM |  |
| COc1ccc(C(=O)Nc2c(F)cccc2F)cc1O | 37.2 µM |  |
| CCCCC(=O)c1ccc(OC2CCOC2)c(OC)c1 (stereo not drawn) | 100 µM |  |
| CCCCC(O)c1ccc(OC2CCOCC2)c(OC)c1 (stereo not drawn) | > 100 µM and 537 µM |  |
| CCCC(O)c1ccc(OC2CCOCC2)c(OC)c1 (stereo not drawn) | > 100 µM and 1510 µM |  |
| CC(C)CC(=O)c1ccc(OC(F)F)c(OC2CCOC2)c1 (stereo not drawn) |  | IC50 [1]: > 50 µM; IC50 [3]: > 50 µM; IC50 [4]: > 50 µM; IC50 [5]: > 50 µM; IC50 [6]: 40 nM |
| COc1ccc(C(=O)Nc2c(F)cccc2F)cc1OC1CCCCC1 | 0.398 µM |  |
| CCCCC(=O)c1ccc(OC)c(OC2CCOCC2)c1 | 0.72 µM |  |
| CCCC(=O)c1ccc(OC2CCN(C(=O)OC(C)(C)C)CC2)c(OC)c1 | 29 µM |  |
| O=C(CCC1CCCCC1)c1ccc(OC(F)F)c(OC2CCOC2)c1 (stereo not drawn) | 1.1 µM |  |
| COc1ccc(C(=O)Nc2c(Cl)cccc2Cl)cc1OC1CCCC1 | 0.0282 µM |  |
| CCCCC(=O)c1ccc(OC(F)F)c(OC2CCOC2)c1 (stereo not drawn) | 0.061 µM |  |
| COc1ccc(C(=O)CCc2ccccc2)cc1OC1CCOC1 (stereo not drawn) | 2.6 µM |  |
| COc1ccc(C(=O)CC(C)C)cc1OC1CCOC1 (stereo not drawn) | 0.19 µM and 0.178 µM |  |
| O=C(CCc1ccccc1)c1ccc(OC(F)F)c(OC(F)F)c1 | 0.82 µM |  |
| CCCCC(=O)c1ccc(OC(F)F)c(OC2CCN(C(=O)OC(C)(C)C)CC2)c1 | 2.2 µM |  |
| CCCC(=O)c1ccc(OC2CCOCC2)c(OC)c1 | 60 µM |  |

| SMILES | IC50 [2] | also measured |
| --- | --- | --- |
| CCCC(=O)c1ccc(OC2CCOC2)c(OC)c1 (stereo not drawn) | 24 µM |  |
| O=C(CCCc1ccccc1)c1ccc(OC(F)F)c(OC2CCOC2)c1 (stereo not drawn) | 0.636 µM |  |
| COc1ccc(C(=O)CC2CCCCC2)cc1OC1CCOC1 (stereo not drawn) | 2.6 µM |  |
| O=C(CCc1ccccc1)c1ccc(OC(F)F)c(OC2CCOC2)c1 (stereo not drawn) | 0.18 µM |  |
| O=C(CC1CCCCC1)c1ccc(OC(F)F)c(OC2CCOC2)c1 (stereo not drawn) | 0.667 µM |  |
| CCCCC(=O)c1ccc(OC2CCN(C(=O)OC(C)(C)C)CC2)c(OC)c1 | 93 µM |  |
| CCCCC(O)c1ccc(OC2CCOC2)c(OC)c1 (stereo not drawn) | > 100 µM and 398 µM |  |
| CCCCC(=O)c1ccc(OC2CCOCC2)c(OC)c1 | 71 µM |  |
| CCCCC(c1cccnc1)c1ccc(Oc2ccccn2)c(OC)c1 (stereo not drawn) | 10 µM |  |
| COc1ccc(C(=O)CCC2CCCCC2)cc1OC1CCOC1 (stereo not drawn) | 1.9 µM |  |
| CCCCC(O)c1ccc(OC)c(OC2CCOC2)c1 (stereo not drawn) | 10 µM |  |
| COc1ccc(C(=O)c2cnc3ccccc3c2)cc1OC1CCOCC1 | 45 µM |  |
| O=C(CC1CCCCC1)c1ccc(OC(F)F)c(OC(F)F)c1 | 5.2 µM |  |
| COc1ccc(C(=S)Nc2c(Cl)cccc2Cl)cc1OC1CCCC1 | 0.2 µM |  |
| CCCC(=O)c1ccc(OC(F)F)c(OC2CCOCC2)c1 | 0.35 µM |  |
| CCCCC(=O)c1ccc(OC)c(OC2CCNCC2)c1 | 102 µM | solubility [7]: 800 µM (≈ 233 µg/mL) |
| COc1ccc(C(=O)CCC(C)C)cc1OC1CCOC1 (stereo not drawn) | 0.38 µM |  |
| COc1ccc(C(=O)CCCc2ccccc2)cc1OC1CCOC1 (stereo not drawn) | 2.29 µM |  |
| COc1cc(C(CC(C)=O)c2cccnc2)ccc1O (stereo not drawn) | 80 µM |  |
| COc1ccc(C(=O)Nc2ccccc2Cl)cc1OC | 0.646 µM |  |
| CCCCC(=O)c1ccc(OC)c(OC2CCOC2)c1 (stereo not drawn) | 0.22 µM |  |
| COc1ccc(C(=O)Nc2ccccc2F)cc1OC1CCCC1 | 10.7 µM |  |
| COc1ccc(C(=O)Nc2c(F)cccc2F)cc1OC1CCCC1 | 0.0708 µM |  |
| CCCOc1cc(C(=O)Nc2c(F)cccc2F)ccc1OC | 1.58 µM |  |
| CCCC(=O)c1ccc(OC(F)F)c(Oc2ccccn2)c1 | 40 µM |  |
